We go through 14 compounds from ChEMBL document CHEMBL6074706, “Inhibition of the Binding of Interleukin 17A with Interleukin 17A Receptor as a Treatment for Immune System and Inflammation Disorders, Cancer, and Neurodegenerative Diseases” (ACS Med Chem Lett, 2024).

This experiment can be described thus: Inhibition of human IL-17A binding to recombinant human Fc-tagged IL-17RA preincubated with IL-17A for 30 mins followed by receptor addition and measured after 90 mins by AlphaLISA plate reader analysis.
For `CCc1nonc1C(=O)NC(C(=O)Nc1cc([C@@H](COC)N2C[C@@H](C(F)(F)F)NC2=O)ccn1)C1CCC(F)CC1` (some centres undefined), the IC50 was 17 nM.

Take `Cn1nccc1C(=O)N[C@H](C(=O)Nc1cc(OC2CCNC2=O)ccn1)[C@H]1CC[C@H](C)CC1` (some centres undefined): the IC50 was found to be 8970 nM.

On to `COCC(c1ccnc(NC(=O)[C@@H](NC(=O)c2nonc2C2CC2)[C@H]2CC[C@H](C)CC2)c1)N1C[C@@H](C(F)(F)F)NC1=O` (some centres undefined), for which the IC50 came out at 11 nM.

For `CCc1nocc1C(=O)N[C@H](C(=O)Nc1cc([C@@H](COC)N2C[C@@H](C(F)(F)F)NC2=O)ccn1)[C@H]1CCCC(F)(F)C1`, the half-inhibitory concentration (IC50) turned out to be 51 nM.

Turning to `CC1(C)CN(Cc2ccnc(NC(=O)[C@@H](NC(=O)c3nonc3C3CC3)[C@H]3CC[C@H](C)CC3)c2)C(=O)N1`, the IC50 turned out to be 105 nM.

For the compound `C[C@H]1CC[C@H]([C@H](NC(=O)c2nonc2C2CC2)C(=O)Nc2cc(CN3C[C@@H](C(F)(F)F)NC3=O)ccn2)CC1`, the IC50 was found to be 25 nM.

On to `CC(C)n1nccc1C(=O)N[C@H](C(=O)Nc1cc(O[C@@H]2C[C@@H](C(F)(F)F)NC2=O)ccn1)[C@H]1CC[C@H](C)CC1`, for which the IC50 is 1210 nM.

`CCC[C@H](c1ccnc(NC(=O)[C@@H](NC(=O)c2nocc2CC)C2CCC(F)(F)CC2)c1)N1C[C@@H](C(F)(F)F)NC1=O`: the IC50 is 18 nM.

`CCc1nonc1C(=O)N[C@H](C(=O)Nc1cc([C@@H](COC)N2CC(F)(F)CNC2=O)ccn1)C1CCC(F)(F)CC1`: the IC50 worked out at 19 nM.

In the case of `CC(C)(C)OC(=O)N[C@H](C(=O)Nc1cc(CN2C[C@@H](C(F)(F)F)NC2=O)ccn1)[C@H]1CC[C@H](C)CC1`, the IC50 was 148 nM.

As for `CCc1ncoc1C(=O)N[C@H](C(=O)Nc1cc(C[C@H]2C[C@@H](C(F)(F)F)NC2=O)ccn1)C1CCC(F)(F)CC1`, the IC50 amounted to 465 nM.

Turning to `CCc1nonc1C(=O)N[C@H](C(=O)Nc1cc(C(COC)N2C[C@@H](C(F)(F)F)NC2=O)ccn1)[C@H]1CC[C@H](C)CC1` (some centres undefined), the IC50 amounted to 4 nM.

Take `COCC(NC(=O)CCC(F)(F)F)c1ccnc(NC(=O)[C@@H](NC(=O)c2ccnn2C(C)C)C2CCC(F)(F)CC2)c1` (some centres undefined): the IC50 was 1360 nM.

In the case of `CC[C@H](c1ccnc(NC(=O)[C@H](NC(=O)c2ccnn2C)[C@H]2CC[C@H](C)CC2)c1)N1C[C@@H](C(F)(F)F)NC1=O`, the IC50 is 6 nM.
